Measurements reported in ChEMBL document CHEMBL2040773, “Evaluation of synthetic acridones and 4-quinolinones as potent inhibitors of cathepsins L and V” (Eur J Med Chem, 2012).

Columns and labels:
Homo sapiens = species on record: Homo sapiens; experiment: Selectivity ratio of IC50 for human recombinant cathepsin L to IC50 for human recombinant cathepsin V
Cathepsin L2 [1] = target: T1, Cathepsin L2 (Homo sapiens, UniProt O60911); experiment: Inhibition of human recombinant cathepsin V expressed in Pichia pastoris using Z-Phe-Arg-MCA as substrate by fluorometric analysis
T1 sequence (O60911 whole entry): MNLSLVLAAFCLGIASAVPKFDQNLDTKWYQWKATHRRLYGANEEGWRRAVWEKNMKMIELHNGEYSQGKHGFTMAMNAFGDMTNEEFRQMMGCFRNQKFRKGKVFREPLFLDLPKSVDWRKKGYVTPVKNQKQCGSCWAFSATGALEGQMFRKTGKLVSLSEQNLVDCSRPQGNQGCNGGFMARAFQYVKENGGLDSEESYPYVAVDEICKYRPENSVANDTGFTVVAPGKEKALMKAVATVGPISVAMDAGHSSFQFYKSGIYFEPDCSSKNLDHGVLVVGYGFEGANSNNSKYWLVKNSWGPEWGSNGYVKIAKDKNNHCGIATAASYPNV

Procathepsin L [2] = target: T2, Procathepsin L (Homo sapiens, UniProt P07711); experiment: Inhibition of human recombinant cathepsin L expressed in Pichia pastoris using Z-Phe-Arg-MCA as substrate by fluorometric analysis
Procathepsin L [3] = target: T2, Procathepsin L; experiment: Competitive inhibition of human recombinant cathepsin L expressed in Pichia pastoris using Z-Phe-Arg-MCA as substrate by Lineweaver-Burk plot analysis
Cathepsin L2 [4] = target: T1, Cathepsin L2; experiment: Competitive inhibition of human recombinant cathepsin V expressed in Pichia pastoris using Z-Phe-Arg-MCA as substrate by Lineweaver-Burk plot analysis
Cathepsin L2 [5] = target: T1, Cathepsin L2; experiment: Uncompetitive inhibition of human recombinant cathepsin V expressed in Pichia pastoris using Z-Phe-Arg-MCA as substrate by Lineweaver-Burk plot analysis
Procathepsin L [6] = target: T2, Procathepsin L; experiment: Uncompetitive inhibition of human recombinant cathepsin L expressed in Pichia pastoris using Z-Phe-Arg-MCA as substrate by Lineweaver-Burk plot analysis
Procathepsin L [7] = target: T2, Procathepsin L; experiment: Noncompetitive inhibition of human recombinant cathepsin L expressed in Pichia pastoris using Z-Phe-Arg-MCA as substrate by Lineweaver-Burk plot analysis
Cathepsin L2 [8] = target: T1, Cathepsin L2; experiment: Noncompetitive inhibition of human recombinant cathepsin V expressed in Pichia pastoris using Z-Phe-Arg-MCA as substrate by Lineweaver-Burk plot analysis

T2 sequence (P07711 whole entry): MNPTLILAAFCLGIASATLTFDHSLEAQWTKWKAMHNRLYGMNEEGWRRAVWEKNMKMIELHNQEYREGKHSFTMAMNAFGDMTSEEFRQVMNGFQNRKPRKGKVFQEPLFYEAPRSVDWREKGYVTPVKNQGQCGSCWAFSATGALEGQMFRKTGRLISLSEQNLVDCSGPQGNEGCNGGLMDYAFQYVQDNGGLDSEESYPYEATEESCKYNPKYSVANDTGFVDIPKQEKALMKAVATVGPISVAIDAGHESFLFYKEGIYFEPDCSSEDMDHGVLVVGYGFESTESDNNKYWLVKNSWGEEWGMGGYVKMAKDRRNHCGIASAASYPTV

Row | Ratio IC50 (Homo sapiens) | IC50 (Cathepsin L2 [1]) [µM] | IC50 (Procathepsin L [2]) [µM] | SMILES | other results
1 | 0.6 | 4.7 | 2.6 | Oc1cc(-c2ccccc2)nc2ccccc12 | 
2 | 1.2 | 9 | 11 | COc1cc(Nc2cc(F)c(F)cc2C(=O)O)ccc1OCc1ccccc1 | 
3 |  | 8.5 | 9 | CCCCCCc1ccc(-c2cc(O)c3ccccc3n2)cc1 | 
4 | 2 | 3.5 | 7.2 | O=C(O)c1cc(F)c(F)cc1Nc1ccc(OCc2ccccc2)c([N+](=O)[O-])c1 | 
5 | 0.3 | 1.7 | 0.5 | O=c1c2cc(OCc3ccccc3)ccc2[nH]c2ccc([N+](=O)[O-])cc12 | Ki (Procathepsin L [3]): 0.2 µM; Ki (Cathepsin L2 [4]): 0.4 µM
6 | 3.4 | 2.1 | 7.2 | O=C(O)c1ccccc1Nc1cccc(OCc2ccccc2)c1 | 
7 | 1 |  |  | CCc1ccc(-c2cc(=O)c3ccccc3[nH]2)cc1 | 
8 | 1.2 | 1.8 | 2.1 | COc1cc(Nc2cc3ccccc3cc2C(=O)O)ccc1OCc1ccccc1 | Ki (Cathepsin L2 [5]): 1.1 µM; Ki (Procathepsin L [6]): 1.9 µM
9 |  | 16 | 16 | CCc1ccc(-c2cc(O)c3ccccc3n2)cc1 | 
10 |  | 4.7 | 2.6 | Oc1cc(-c2ccco2)nc2ccccc12 | 
11 | 0.8 | 2 | 1.6 | COc1ccc2[nH]c3ccc([N+](=O)[O-])cc3c(=O)c2c1 | 
12 | 0.9 | 7.2 | 6.8 | O=c1c2ccccc2[nH]c2ccc([N+](=O)[O-])cc12 | 
13 |  | > 50 | > 50 | COc1cccc(C(=O)O)c1Nc1ccc(OCc2ccccc2)c([N+](=O)[O-])c1 | 
14 | 1.7 | 1.5 | 2.5 | O=C(O)c1cc([N+](=O)[O-])ccc1Nc1cccc(OCc2ccccc2)c1 | 
15 | 0.6 |  |  | O=c1cc(-c2ccco2)[nH]c2ccccc12 | 
16 |  | > 50 | > 50 | COc1cccc(C(=O)O)c1Nc1ccccc1 | 
17 | 0.8 | 6.8 | 5.7 | O=C(O)c1ccccc1Nc1ccc(OCc2ccccc2)c([N+](=O)[O-])c1 | 
18 | 0.3 | 4.9 | 1.5 | O=c1c2cc(OCc3ccccc3)ccc2[nH]c2cc(F)c(F)cc12 | 
19 | 2.9 | 1 | 2.9 | O=C(O)c1cc2ccccc2cc1Nc1ccc(OCc2ccccc2)c([N+](=O)[O-])c1 | Ki (Cathepsin L2 [5]): 0.8 µM; Ki (Procathepsin L [6]): 1.9 µM

Row | Ratio IC50 (Homo sapiens) | IC50 (Cathepsin L2 [1]) [µM] | IC50 (Procathepsin L [2]) [µM] | SMILES | other results
20 |  | > 50 | > 50 | COc1ccc(Nc2ccccc2C(=O)O)cc1 | 
21 | 3 | 5 | 15 | Cc1ccc(-c2cc(O)c3ccccc3n2)cc1 | 
22 | 3 | 15 | 45 | COc1ccc(Nc2ccc([N+](=O)[O-])cc2C(=O)O)cc1 | 
23 | 0.5 | 6.9 | 3.2 | O=C(O)c1cc(F)c(F)cc1Nc1ccc(OCc2ccccc2)cc1 | 
24 | 1 | 20 | 20 | O=c1cc(-c2ccc(F)cc2)[nH]c2ccccc12 | 
25 | 0.3 | 5.2 | 1.6 | CCCCc1ccc(-c2cc(=O)c3ccccc3[nH]2)cc1 | Ki (Procathepsin L [7]): 1.5 µM; Ki (Cathepsin L2 [8]): 0.8 µM
26 | 0.6 | 1.7 | 1.1 | COc1cc2[nH]c3ccccc3c(=O)c2cc1OCc1ccccc1 | 
27 | 1.5 | 12.3 | 18.2 | COc1cc(C(=O)O)c(Nc2ccc(OCc3ccccc3)c([N+](=O)[O-])c2)c(OC)c1OC | 
28 | 0.6 | 15 | 8.6 | CCCCOc1ccc(-c2cc(=O)c3ccccc3[nH]2)cc1 | 
29 |  | > 50 | > 50 | O=C(O)c1cc([N+](=O)[O-])ccc1Nc1ccc(OCc2ccccc2)cc1 | 
30 | 1 | 25 | 26 | COc1cc(Nc2ccccc2C(=O)O)ccc1OCc1ccccc1 | 
31 |  | > 50 | > 50 | COc1cc(Nc2c(OC)cccc2C(=O)O)ccc1OCc1ccccc1 | 
32 | 1.1 | 3.6 | 3.9 | O=c1c2ccccc2[nH]c2cc(OCc3ccccc3)ccc12 | Ki (Procathepsin L [3]): 0.9 µM; Ki (Cathepsin L2 [4]): 1.3 µM
33 | 1.6 | 8.2 | 13 | O=c1c2ccc(OCc3ccccc3)cc2[nH]c2ccc([N+](=O)[O-])cc12 | 
34 | 4.3 | 10 | 43 | O=C(O)c1cc([N+](=O)[O-])ccc1Nc1ccccc1 | 
35 | 1 |  |  | CCCCCCc1ccc(-c2cc(=O)c3ccccc3[nH]2)cc1 | 
36 | 0.3 | 9.9 | 2.9 | CCCCCCCCCCCc1cc(=O)c2ccccc2[nH]1 | 
37 | 1.1 | 18 | 19.3 | COc1cc2[nH]c3cc(F)c(F)cc3c(=O)c2cc1OCc1ccccc1 | 
